Measurements taken from ChEMBL document CHEMBL4261580, “Novel antitumor compound optimized from natural saponin Albiziabioside A induced caspase-dependent apoptosis and ferroptosis as a p53 activator through the mitochondrial pathway” (Eur J Med Chem, 2018).
pIC50: −log10 of the molar value. Active and inactive are the calls of the source. No cut-off for these calls is given here.

Assays:
HCT-116 [1] = test: Antiproliferative activity against human HCT116 cells after 72 hrs by MTT assay; assay type: functional, cell-based; conditions: HCT-116, 72 h
HepG2 = test: Antiproliferative activity against human HepG2 cells after 72 hrs by MTT assay; assay type: functional, cell-based; conditions: HepG2, 72 h
MCF7 = test: Antiproliferative activity against human MCF7 cells after 72 hrs by MTT assay; assay type: functional, cell-based; conditions: MCF7, 72 h
A549 = test: Antiproliferative activity against human A549 cells after 72 hrs by MTT assay; assay type: functional, cell-based; conditions: A549, 72 h
MGC-803 = test: Antiproliferative activity against human MGC803 cells after 72 hrs by MTT assay; assay type: functional, cell-based; conditions: MGC-803, 72 h
[2] = Antiproliferative activity against human HBMEC cells after 72 hrs by MTT assay; assay type: cell-based
L02 = test: Antiproliferative activity against human LO2 cells after 72 hrs by MTT assay; assay type: cell-based; conditions: L02, 72 h
[3] = Antiproliferative activity against human CCD-841 cells after 72 hrs by MTT assay; assay type: cell-based; conditions: CCD-841, 72 h
HaCaT = test: Antiproliferative activity against human HaCaT cells after 72 hrs by MTT assay; assay type: cell-based
BEAS-2B = test: Antiproliferative activity against human BEAS2B cells after 72 hrs by MTT assay; assay type: functional, cell-based
HCT-116 [4] = test: Antitumor activity against human HCT116 cells xenografted in BALB/c nude mouse assessed as decrease in tumor size at 20 mg/kg, iv administered once per day for 14 days and measured every 2 days; assay type: functional
HCT-116 [5] = test: Antitumor activity against human HCT116 cells xenografted in BALB/c nude mouse assessed as decrease in tumor weight at 20 mg/kg, iv administered once per day for 14 days and measured every 2 days; assay type: functional

SMILES	pIC50 (HCT-116 [1])	pIC50 (HepG2)	pIC50 (MCF7)	pIC50 (A549)	pIC50 (MGC-803)	pIC50 [2]	pIC50 (L02)	pIC50 [3]	pIC50 (HaCaT)	pIC50 (BEAS-2B)	Activity (HCT-116 [4])	Activity (HCT-116 [5])
CC(=O)N[C@H]1[C@H](O[C@H]2CC[C@]3(C)[C@H]4CC=C5[C@@H]6CC(C)(C)CC[C@]6(C(=O)OCc6cn(-c7cccc(I)c7)nn6)CC[C@@]5(C)[C@]4(C)CC[C@H]3C2(C)C)O[C@H](CO[C@@H]2OC[C@H](O)[C@H](O)[C@@H]2O)[C@@H](O)[C@@H]1O	4.91	5.27	4.97	5.04	5.00	4.73	4.56	4.44	4.53	4.84	–	–
CC(=O)N[C@H]1[C@H](O[C@H]2CC[C@]3(C)[C@H]4CC=C5[C@@H]6CC(C)(C)CC[C@]6(C(=O)OCc6cn(-c7ccccc7F)nn6)CC[C@@]5(C)[C@]4(C)CC[C@H]3C2(C)C)O[C@H](CO[C@@H]2OC[C@H](O)[C@H](O)[C@@H]2O)[C@@H](O)[C@@H]1O	4.63	4.72	4.32	4.62	4.69	–	–	–	–	–	–	–
CC(=O)N[C@H]1[C@H](O[C@H]2CC[C@]3(C)[C@H]4CC=C5[C@@H]6CC(C)(C)CC[C@]6(C(=O)OCc6cn(-c7cccc(Cl)c7)nn6)CC[C@@]5(C)[C@]4(C)CC[C@H]3C2(C)C)O[C@H](CO[C@@H]2OC[C@H](O)[C@H](O)[C@@H]2O)[C@@H](O)[C@@H]1O	4.94	5.09	4.73	5.11	4.96	–	–	–	–	–	–	–
COC(=O)c1ccccc1-n1cc(COC(=O)[C@]23CCC(C)(C)C[C@H]2C2=CC[C@@H]4[C@@]5(C)CC[C@H](O[C@@H]6O[C@H](CO[C@@H]7OC[C@H](O)[C@H](O)[C@@H]7O)[C@@H](O)[C@H](O)[C@H]6NC(C)=O)C(C)(C)[C@@H]5CC[C@@]4(C)[C@]2(C)CC3)nn1	4.42	4.16	4.06	4.18	4.12	–	–	–	–	–	–	–
CC(=O)N[C@H]1[C@H](O[C@H]2CC[C@]3(C)[C@H]4CC=C5[C@@H]6CC(C)(C)CC[C@]6(C(=O)OCc6cn(-c7ccccc7OC(F)(F)F)nn6)CC[C@@]5(C)[C@]4(C)CC[C@H]3C2(C)C)O[C@H](CO[C@@H]2OC[C@H](O)[C@H](O)[C@@H]2O)[C@@H](O)[C@@H]1O	4.42	4.50	4.49	4.82	4.43	–	–	–	–	–	–	–
CC(=O)N[C@H]1[C@H](O[C@H]2CC[C@]3(C)[C@H]4CC=C5[C@@H]6CC(C)(C)CC[C@]6(C(=O)OCc6cn(-c7cccc(Br)c7)nn6)CC[C@@]5(C)[C@]4(C)CC[C@H]3C2(C)C)O[C@H](CO[C@@H]2OC[C@H](O)[C@H](O)[C@@H]2O)[C@@H](O)[C@@H]1O	5.00	5.26	4.82	4.99	5.11	4.69	4.45	4.74	4.41	4.95	–	–
CCOc1ccc(-n2cc(COC(=O)[C@]34CCC(C)(C)C[C@H]3C3=CC[C@@H]5[C@@]6(C)CC[C@H](O[C@@H]7O[C@H](CO[C@@H]8OC[C@H](O)[C@H](O)[C@@H]8O)[C@@H](O)[C@H](O)[C@H]7NC(C)=O)C(C)(C)[C@@H]6CC[C@@]5(C)[C@]3(C)CC4)nn2)cc1	4.78	4.87	4.61	4.71	4.67	–	–	–	–	–	–	–
CC(=O)N[C@H]1[C@H](O[C@H]2CC[C@]3(C)[C@H]4CC=C5[C@@H]6CC(C)(C)CC[C@]6(C(=O)OCc6cn(-c7ccccc7Br)nn6)CC[C@@]5(C)[C@]4(C)CC[C@H]3C2(C)C)O[C@H](CO[C@@H]2OC[C@H](O)[C@H](O)[C@@H]2O)[C@@H](O)[C@@H]1O	4.88	4.21	4.17	4.19	4.26	–	–	–	–	–	–	–
CC(=O)N[C@H]1[C@H](O[C@H]2CC[C@]3(C)[C@H]4CC=C5[C@@H]6CC(C)(C)CC[C@]6(C(=O)OCc6cn(-c7ccc(Cl)cc7)nn6)CC[C@@]5(C)[C@]4(C)CC[C@H]3C2(C)C)O[C@H](CO[C@@H]2OC[C@H](O)[C@H](O)[C@@H]2O)[C@@H](O)[C@@H]1O	4.42	4.55	4.17	4.41	4.60	–	–	–	–	–	–	–
CC(=O)N[C@H]1[C@H](O[C@H]2CC[C@]3(C)[C@H]4CC=C5[C@@H]6CC(C)(C)CC[C@]6(C(=O)O)CC[C@@]5(C)[C@]4(C)CC[C@H]3C2(C)C)O[C@H](CO[C@@H]2OC[C@H](O)[C@H](O)[C@@H]2O)[C@@H](O)[C@@H]1O	4.80	4.94	4.66	4.75	4.68	–	–	–	–	–	Active	Active
CC(=O)N[C@H]1[C@H](O[C@H]2CC[C@]3(C)[C@H]4CC=C5[C@@H]6CC(C)(C)CC[C@]6(C(=O)OCc6cn(-c7ccc(Cl)cc7Cl)nn6)CC[C@@]5(C)[C@]4(C)CC[C@H]3C2(C)C)O[C@H](CO[C@@H]2OC[C@H](O)[C@H](O)[C@@H]2O)[C@@H](O)[C@@H]1O	4.41	4.49	4.54	4.44	4.50	–	–	–	–	–	–	–
CC(=O)N[C@H]1[C@H](O[C@H]2CC[C@]3(C)[C@H]4CC=C5[C@@H]6CC(C)(C)CC[C@]6(C(=O)OCc6cn(-c7cccc(F)c7)nn6)CC[C@@]5(C)[C@]4(C)CC[C@H]3C2(C)C)O[C@H](CO[C@@H]2OC[C@H](O)[C@H](O)[C@@H]2O)[C@@H](O)[C@@H]1O	4.95	4.74	4.46	4.71	4.73	–	–	–	–	–	–	–
CC(=O)N[C@H]1[C@H](O[C@H]2CC[C@]3(C)[C@H]4CC=C5[C@@H]6CC(C)(C)CC[C@]6(C(=O)OCc6cn(-c7ccccc7C)nn6)CC[C@@]5(C)[C@]4(C)CC[C@H]3C2(C)C)O[C@H](CO[C@@H]2OC[C@H](O)[C@H](O)[C@@H]2O)[C@@H](O)[C@@H]1O	4.96	4.29	4.06	4.20	4.24	–	–	–	–	–	–	–
CC(=O)N[C@H]1[C@H](O[C@H]2CC[C@]3(C)[C@H]4CC=C5[C@@H]6CC(C)(C)CC[C@]6(C(=O)OCc6cn(-c7ccc(C#N)cc7)nn6)CC[C@@]5(C)[C@]4(C)CC[C@H]3C2(C)C)O[C@H](CO[C@@H]2OC[C@H](O)[C@H](O)[C@@H]2O)[C@@H](O)[C@@H]1O	5.05	4.76	4.80	4.65	4.74	–	–	–	–	–	–	–
CC(=O)N[C@H]1[C@H](O[C@H]2CC[C@]3(C)[C@H]4CC=C5[C@@H]6CC(C)(C)CC[C@]6(C(=O)OCc6cn(-c7ccccc7)nn6)CC[C@@]5(C)[C@]4(C)CC[C@H]3C2(C)C)O[C@H](CO[C@@H]2OC[C@H](O)[C@H](O)[C@@H]2O)[C@@H](O)[C@@H]1O	4.60	4.74	4.66	5.00	4.71	–	–	–	–	–	–	–
COc1ccccc1-n1cc(COC(=O)[C@]23CCC(C)(C)C[C@H]2C2=CC[C@@H]4[C@@]5(C)CC[C@H](O[C@@H]6O[C@H](CO[C@@H]7OC[C@H](O)[C@H](O)[C@@H]7O)[C@@H](O)[C@H](O)[C@H]6NC(C)=O)C(C)(C)[C@@H]5CC[C@@]4(C)[C@]2(C)CC3)nn1	4.25	4.30	4.27	4.22	4.28	–	–	–	–	–	–	–
CC(=O)N[C@H]1[C@H](O[C@H]2CC[C@]3(C)[C@H]4CC=C5[C@@H]6CC(C)(C)CC[C@]6(C(=O)OCc6cn(-c7ccc(Br)cc7)nn6)CC[C@@]5(C)[C@]4(C)CC[C@H]3C2(C)C)O[C@H](CO[C@@H]2OC[C@H](O)[C@H](O)[C@@H]2O)[C@@H](O)[C@@H]1O	4.64	4.90	4.58	4.90	4.91	–	–	–	–	–	–	–
